# Measurements from ChEMBL document CHEMBL4261659, “Synthesis and biological evaluation of novel N-substituted nipecotic acid derivatives with a trans-alkene spacer as potent GABA uptake inhibitors” (Bioorg Med Chem, 2018).
# pIC50, pKi: −log10 of the molar value.
# Biological target: T1, Sodium- and chloride-dependent GABA transporter 1 (Mus musculus, UniProt P31648)
# Assay: Displacement of NO711 from mouse GAT1 expressed in stable HEK293 cells preincubated for 10 mins followed by NO711 addition and measured after 40 mins by LC-ESI-MS/MS analysis
# Assay type: cell-based
row,SMILES,pKi
1,O=C(O)C1CCCN(C/C=C/C(c2ccc3occc3c2)(c2ccc3occc3c2)c2ccc3occc3c2)C1 (racemic),5.67
2,COc1ccc(C(/C=C/CN2CCCC(C(=O)O)C2)(Cc2ccccc2)c2ccc(OC)cc2)cc1 (racemic),5.33
3,COc1ccc(CC(/C=C/CN2CCCC(C(=O)O)C2)(c2ccc(OC)cc2)c2ccc(OC)cc2)cc1 (racemic),5.51
4,COc1ccc(C(/C=C/CN2CCCC(C(=O)O)C2)(c2ccc(OC)cc2)c2nccs2)cc1 (racemic),4.47
5,O=C(O)C1CCCN(C/C=C/CC(c2ccccc2)(c2ccccc2)c2ccccc2)C1 (racemic),5.01
6,O=C(O)C1CCCN(C/C=C/C(c2ccc3c(c2)OCO3)(c2ccc3c(c2)OCO3)c2ccc3c(c2)OCO3)C1 (racemic),5.20
7,COc1ccc(C(/C=C/CN2CCC[C@H](C(=O)O)C2)(c2ccc(OC)cc2)c2ccc3sccc3c2)cc1,5.14
8,O=C(O)C1CCCN(C/C=C/C(c2ccccc2)(c2ccccc2)c2ccccc2)C1 (racemic),5.08
9,COc1ccc(C(/C=C/CN2CCCC(C(=O)O)C2)(c2ccc(OC)cc2)c2ccsc2)cc1 (racemic),4.89
10,COc1ccc(C(C/C=C/CN2CCCC(C(=O)O)C2)(c2ccc(OC)cc2)c2ccc(OC)cc2)cc1 (racemic),4.46
11,O=C(O)C1CCCN(C/C=C/CC(c2ccccc2)c2ccccc2)C1 (racemic),7.51
12,COc1ccc(C(/C=C/CN2CCCC(C(=O)O)C2)(c2ccc(OC)cc2)c2ccc3c(c2)OCO3)cc1 (racemic),5.06
13,Cc1ccc(C(/C=C/CN2CCCC(C(=O)O)C2)(c2ccc(C)cc2)c2ccc(C)cc2)cc1 (racemic),5.26
14,COc1ccc(C(C/C=C/CN2CCCC(C(=O)O)C2)c2ccc(OC)cc2)cc1 (racemic),5.49
15,COc1ccc(C(/C=C/CN2CCCC(C(=O)O)C2)(c2ccc(OC)cc2)c2ccc3sccc3c2)cc1 (racemic),5.48
16,COc1ccc(C(/C=C/CN2CCCC(C(=O)O)C2)c2ccc(OC)cc2)cc1 (racemic),5.43

# Biological target: T1, Sodium- and chloride-dependent GABA transporter 1
# Assay: Inhibition of mouse GAT1 expressed in HEK293 cells assessed as reduction in [3H]GABA uptake preincubated for 25 mins followed by [3H]GABA addition and measured after 4 mins by liquid scintillation counting method
# Assay type: cell-based
row,SMILES,pIC50
1,O=C(O)C1CCCN(C/C=C/C(c2ccc3occc3c2)(c2ccc3occc3c2)c2ccc3occc3c2)C1 (racemic),5.39
2,COc1ccc(C(/C=C/CN2CCCC(C(=O)O)C2)(Cc2ccccc2)c2ccc(OC)cc2)cc1 (racemic),4.80
3,COc1ccc(CC(/C=C/CN2CCCC(C(=O)O)C2)(c2ccc(OC)cc2)c2ccc(OC)cc2)cc1 (racemic),4.95
4,O=C(O)C1CCCN(C/C=C/CC(c2ccccc2)(c2ccccc2)c2ccccc2)C1 (racemic),4.67
5,O=C(O)C1CCCN(C/C=C/C(c2ccc3c(c2)OCO3)(c2ccc3c(c2)OCO3)c2ccc3c(c2)OCO3)C1 (racemic),4.75
6,COc1ccc(C(/C=C/CN2CCC[C@H](C(=O)O)C2)(c2ccc(OC)cc2)c2ccc3sccc3c2)cc1,4.85
7,O=C(O)C1CCCN(C/C=C/C(c2ccccc2)(c2ccccc2)c2ccccc2)C1 (racemic),4.39
8,COc1ccc(C(/C=C/CN2CCCC(C(=O)O)C2)(c2ccc(OC)cc2)c2ccsc2)cc1 (racemic),4.41
9,COc1ccc(C(C/C=C/CN2CCCC(C(=O)O)C2)(c2ccc(OC)cc2)c2ccc(OC)cc2)cc1 (racemic),4.26
10,O=C(O)C1CCCN(C/C=C/CC(c2ccccc2)c2ccccc2)C1 (racemic),6.78
11,COc1ccc(C(/C=C/CN2CCCC(C(=O)O)C2)(c2ccc(OC)cc2)c2ccc3c(c2)OCO3)cc1 (racemic),4.55
12,Cc1ccc(C(/C=C/CN2CCCC(C(=O)O)C2)(c2ccc(C)cc2)c2ccc(C)cc2)cc1 (racemic),4.69
13,COc1ccc(C(O)(/C=C/CN2CCCC(C(=O)O)C2)c2ccc(OC)cc2)cc1 (racemic),4.15
14,COc1ccc(C(C/C=C/CN2CCCC(C(=O)O)C2)c2ccc(OC)cc2)cc1 (racemic),4.87
15,COc1ccc(C(/C=C/CN2CCCC(C(=O)O)C2)(c2ccc(OC)cc2)c2ccc3sccc3c2)cc1 (racemic),4.99
16,COc1ccc(C(/C=C/CN2CCCC(C(=O)O)C2)c2ccc(OC)cc2)cc1 (racemic),4.85

# Biological target: Sodium- and chloride-dependent GABA transporter 1 (Mus musculus) (UniProt P31648)
# Assay: Displacement of NO711 from mouse GAT1 expressed in stable HEK293 cells assessed as remaining specific NO711 binding level preincubated at 100 uM for 10 mins followed by NO711 addition and measured after 40 mins by LC-ESI-MS/MS analysis
# Assay type: cell-based
row,SMILES,Activity [%]
1,O=C(O)C1CCCN(C/C=C/C(c2ccc3sccc3c2)(c2ccc3sccc3c2)c2ccc3sccc3c2)C1 (racemic),54
2,COc1ccc(C(/C=C/CN2CCCC(C(=O)O)C2)(c2ccc(OC)cc2)c2nccn2C)cc1 (racemic),62
3,COc1ccc(C(O)(/C=C/CN2CCCC(C(=O)O)C2)c2ccc(OC)cc2)cc1 (racemic),54

# Biological target: Sodium- and chloride-dependent GABA transporter 1 (Mus musculus) (UniProt P31648)
# Assay: Inhibition of mouse GAT1 expressed in HEK293 cells assessed as remaining [3H]GABA uptake at 100 uM preincubated for 25 mins followed by [3H]GABA addition and measured after 4 mins by liquid scintillation counting method
# Assay type: cell-based
row,SMILES,Activity [%]
1,COc1ccc(C(/C=C/CN2CCCC(C(=O)O)C2)(c2ccc(OC)cc2)c2nccs2)cc1 (racemic),65
2,O=C(O)C1CCCN(C/C=C/C(c2ccc3sccc3c2)(c2ccc3sccc3c2)c2ccc3sccc3c2)C1 (racemic),50
3,COc1ccc(C(/C=C/CN2CCCC(C(=O)O)C2)(c2ccc(OC)cc2)c2nccn2C)cc1 (racemic),70

# Biological target: T2, GABA transporter 4 (Mus musculus, UniProt P31650)
# T2 sequence (P31650 whole entry): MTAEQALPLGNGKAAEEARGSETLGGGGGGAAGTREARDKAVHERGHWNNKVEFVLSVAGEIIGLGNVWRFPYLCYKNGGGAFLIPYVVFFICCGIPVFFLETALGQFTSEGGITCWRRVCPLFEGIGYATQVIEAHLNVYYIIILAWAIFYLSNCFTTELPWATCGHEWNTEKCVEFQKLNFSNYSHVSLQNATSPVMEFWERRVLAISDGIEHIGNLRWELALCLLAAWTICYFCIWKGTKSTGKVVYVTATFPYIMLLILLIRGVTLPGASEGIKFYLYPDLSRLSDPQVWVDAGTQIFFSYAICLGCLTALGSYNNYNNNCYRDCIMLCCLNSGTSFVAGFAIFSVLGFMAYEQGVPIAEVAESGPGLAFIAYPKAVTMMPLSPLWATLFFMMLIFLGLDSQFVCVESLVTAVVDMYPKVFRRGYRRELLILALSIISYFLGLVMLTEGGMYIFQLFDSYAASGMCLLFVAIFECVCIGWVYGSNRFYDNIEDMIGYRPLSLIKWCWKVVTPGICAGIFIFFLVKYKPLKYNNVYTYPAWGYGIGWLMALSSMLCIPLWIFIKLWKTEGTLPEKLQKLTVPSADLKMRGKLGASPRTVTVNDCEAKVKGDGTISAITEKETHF
# Assay: Inhibition of mouse GAT4 expressed in HEK293 cells assessed as reduction in [3H]GABA uptake preincubated for 25 mins followed by [3H]GABA addition and measured after 4 mins by liquid scintillation counting method
# Assay type: cell-based
row,SMILES,pIC50
1,O=C(O)C1CCCN(C/C=C/C(c2ccc3occc3c2)(c2ccc3occc3c2)c2ccc3occc3c2)C1 (racemic),5.23
2,COc1ccc(CC(/C=C/CN2CCCC(C(=O)O)C2)(c2ccc(OC)cc2)c2ccc(OC)cc2)cc1 (racemic),4.18
3,O=C(O)C1CCCN(C/C=C/CC(c2ccccc2)(c2ccccc2)c2ccccc2)C1 (racemic),4.13
4,O=C(O)C1CCCN(C/C=C/C(c2ccc3c(c2)OCO3)(c2ccc3c(c2)OCO3)c2ccc3c(c2)OCO3)C1 (racemic),4.82
5,COc1ccc(C(/C=C/CN2CCC[C@H](C(=O)O)C2)(c2ccc(OC)cc2)c2ccc3sccc3c2)cc1,5.54
6,COc1ccc(C(/C=C/CN2CCCC(C(=O)O)C2)(c2ccc(OC)cc2)c2ccsc2)cc1 (racemic),5.12
7,COc1ccc(C(C/C=C/CN2CCCC(C(=O)O)C2)(c2ccc(OC)cc2)c2ccc(OC)cc2)cc1 (racemic),4.38
8,O=C(O)C1CCCN(C/C=C/C(c2ccc3sccc3c2)(c2ccc3sccc3c2)c2ccc3sccc3c2)C1 (racemic),4.70
9,COc1ccc(C(/C=C/CN2CCCC(C(=O)O)C2)(c2ccc(OC)cc2)c2ccc3c(c2)OCO3)cc1 (racemic),5.50
10,Cc1ccc(C(/C=C/CN2CCCC(C(=O)O)C2)(c2ccc(C)cc2)c2ccc(C)cc2)cc1 (racemic),4.97
11,COc1ccc(C(O)(/C=C/CN2CCCC(C(=O)O)C2)c2ccc(OC)cc2)cc1 (racemic),4.35
12,COc1ccc(C(/C=C/CN2CCCC(C(=O)O)C2)(c2ccc(OC)cc2)c2ccc3sccc3c2)cc1 (racemic),5.45
13,COc1ccc(C(/C=C/CN2CCCC(C(=O)O)C2)c2ccc(OC)cc2)cc1 (racemic),4.50

# Biological target: T3, GABA transporter 4 (Mus musculus) (UniProt P31650)
# T3 sequence (whole entry): T2 sequence (P31650 whole entry)
# Assay: Inhibition of mouse GAT4 expressed in HEK293 cells assessed as remaining [3H]GABA uptake at 100 uM preincubated for 25 mins followed by [3H]GABA addition and measured after 4 mins by liquid scintillation counting method
# Assay type: cell-based
row,SMILES,Activity [%]
1,COc1ccc(C(/C=C/CN2CCCC(C(=O)O)C2)(Cc2ccccc2)c2ccc(OC)cc2)cc1 (racemic),69
2,COc1ccc(C(/C=C/CN2CCCC(C(=O)O)C2)(c2ccc(OC)cc2)c2nccs2)cc1 (racemic),49
3,O=C(O)C1CCCN(C/C=C/C(c2ccccc2)(c2ccccc2)c2ccccc2)C1 (racemic),89
4,O=C(O)C1CCCN(C/C=C/CC(c2ccccc2)c2ccccc2)C1 (racemic),82
5,COc1ccc(C(/C=C/CN2CCCC(C(=O)O)C2)(c2ccc(OC)cc2)c2nccn2C)cc1 (racemic),83
6,COc1ccc(C(C/C=C/CN2CCCC(C(=O)O)C2)c2ccc(OC)cc2)cc1 (racemic),84

# Test system: Betaine/GABA transporter BGT1 (Mus musculus)
# Assay: Inhibition of mouse GAT2 expressed in HEK293 cells assessed as remaining [3H]GABA uptake at 100 uM preincubated for 25 mins followed by [3H]GABA addition and measured after 4 mins by liquid scintillation counting method
row,SMILES,Activity [%]
1,COc1ccc(C(/C=C/CN2CCCC(C(=O)O)C2)(Cc2ccccc2)c2ccc(OC)cc2)cc1 (racemic),92
2,COc1ccc(CC(/C=C/CN2CCCC(C(=O)O)C2)(c2ccc(OC)cc2)c2ccc(OC)cc2)cc1 (racemic),60
3,COc1ccc(C(/C=C/CN2CCCC(C(=O)O)C2)(c2ccc(OC)cc2)c2nccs2)cc1 (racemic),78
4,O=C(O)C1CCCN(C/C=C/CC(c2ccccc2)(c2ccccc2)c2ccccc2)C1 (racemic),55
5,O=C(O)C1CCCN(C/C=C/C(c2ccccc2)(c2ccccc2)c2ccccc2)C1 (racemic),108
6,COc1ccc(C(/C=C/CN2CCCC(C(=O)O)C2)(c2ccc(OC)cc2)c2ccsc2)cc1 (racemic),53
7,COc1ccc(C(C/C=C/CN2CCCC(C(=O)O)C2)(c2ccc(OC)cc2)c2ccc(OC)cc2)cc1 (racemic),66
8,O=C(O)C1CCCN(C/C=C/CC(c2ccccc2)c2ccccc2)C1 (racemic),96
9,COc1ccc(C(/C=C/CN2CCCC(C(=O)O)C2)(c2ccc(OC)cc2)c2ccc3c(c2)OCO3)cc1 (racemic),53
10,COc1ccc(C(/C=C/CN2CCCC(C(=O)O)C2)(c2ccc(OC)cc2)c2nccn2C)cc1 (racemic),72
11,COc1ccc(C(O)(/C=C/CN2CCCC(C(=O)O)C2)c2ccc(OC)cc2)cc1 (racemic),69
12,COc1ccc(C(C/C=C/CN2CCCC(C(=O)O)C2)c2ccc(OC)cc2)cc1 (racemic),96
13,COc1ccc(C(/C=C/CN2CCCC(C(=O)O)C2)c2ccc(OC)cc2)cc1 (racemic),51

# Test system: GABA transporter 3 (Mus musculus)
# Assay: Inhibition of mouse GAT3 expressed in HEK293 cells assessed as remaining [3H]GABA uptake at 100 uM preincubated for 25 mins followed by [3H]GABA addition and measured after 4 mins by liquid scintillation counting method
row,SMILES,Activity [%]
1,COc1ccc(C(/C=C/CN2CCCC(C(=O)O)C2)(Cc2ccccc2)c2ccc(OC)cc2)cc1 (racemic),66
2,COc1ccc(CC(/C=C/CN2CCCC(C(=O)O)C2)(c2ccc(OC)cc2)c2ccc(OC)cc2)cc1 (racemic),53
3,COc1ccc(C(/C=C/CN2CCCC(C(=O)O)C2)(c2ccc(OC)cc2)c2nccs2)cc1 (racemic),82
4,O=C(O)C1CCCN(C/C=C/CC(c2ccccc2)(c2ccccc2)c2ccccc2)C1 (racemic),56
5,O=C(O)C1CCCN(C/C=C/C(c2ccccc2)(c2ccccc2)c2ccccc2)C1 (racemic),103
6,O=C(O)C1CCCN(C/C=C/CC(c2ccccc2)c2ccccc2)C1 (racemic),69
7,COc1ccc(C(/C=C/CN2CCCC(C(=O)O)C2)(c2ccc(OC)cc2)c2nccn2C)cc1 (racemic),83
8,COc1ccc(C(O)(/C=C/CN2CCCC(C(=O)O)C2)c2ccc(OC)cc2)cc1 (racemic),66
9,COc1ccc(C(C/C=C/CN2CCCC(C(=O)O)C2)c2ccc(OC)cc2)cc1 (racemic),71
